# Measured values as given in publication PMC10747430, “^99mTc-Labeled Cyclic Peptide Targeting PD-L1 as a Novel Nuclear Imaging Probe” (Pharmaceutics, 2023).
# Experiments:
# [1] = biological target: T1, human recombinant PD-L1 protein (Homo sapiens, UniProt Q9NZQ7); experiment: Radio-SDS-PAGE molecular recognition by PD-L1 protein; type: binding; conditions: radiopeptide (1 mg/mL) incubated with PD-L1 (200 µg/mL) 30 min at 37 °C; 15% SDS-PAGE, radio-TLC scan
# T1 construct: purchased FineTest P6857
# Experimental: SDS-PAGE gel electrophoresis was performed. Radioactivity distribution was determined using a radio-TLC scanner (Mini-Gita, 60–150 keV, BGO-Crystal, window 25 × 2 mm, thickness 5 mm, resolution optimized for Tc-99m; RayTest, Munich, Germany) to detect [^99mTc]Tc-iPD-L1 and [^99mTc]Tc-WL12 binding to PD-L1 protein.
# Briefly, ^99mTc-labeled WL12 and iPD-L1 solutions (100 µL) (1 mg/mL peptide) were incubated with human recombinant PD-L1 protein (100 µL) (200 µg/mL; FineTest; Cat: P6857) (radiopeptide-PD-L1 interaction) or human integrin αVβ3 protein (100 µL) (negative control; 200 µg/mL) (Chemicom, Merck; Burlington, MA, USA) (radiopeptide-integrin interaction) for 30 min at 37 °C, after which the samples were diluted with Laemmli sample buffer (containing 10% SDS, Tris-Cl 125 mM, pH = 6.8, 12.5% glycerol and 0.005% bromophenol blue after dye) to give final protein concentrations of 25 µg/mL. […] Finally, the radioactivity distribution on the gels was scanned using a radio-TLC detector to determine the percentage of [^99mTc]Tc-iPD-L1 or [^99mTc]Tc-WL12 radioactivity associated with proteins.
# In vitro-specific recognition of [^99mTc]Tc-iPD-L1 and [^99mTc]Tc-WL12 by the PD-L1 protein was performed using a combination of radio-TLC and SDS-PAGE (radio-SDS-PAGE). […] Therefore, the radioactivity associated with free peptides is in the front of the gel plate (around 60–70 mm). […]
# [2] = test system: HCC827 cells (PD-L1 positive); experiment: Cellular uptake and internalization, HCC827; type: cell-based, human; conditions: HCC827, 1 × 10^6 cells/tube, 7.4 kBq, 37 °C, 1 h, n = 3
# Experimental: Human colorectal cancer HCT116 (PD-L1 positive: 45.1 nTPM), human lung cancer HCC827 (PD-L1 positive: 27.1 nTPM), and […] C6 glioma cells (PD-L1 negative control) were obtained from ATCC (Atlanta, GA, USA). FBS, RPMI, and cell culture medium were obtained from Bovine and Biology (CDMX, MX). Cells were cultured in RPMI medium (5% CO2; 100 µg/mL penicillin, 15% fetal bovine serum, and 100 µg/mL streptomycin; 37 °C).
# Cells diluted in phosphate-buffered saline (PBS) (pH 7.4) (1 × 10^6 cells/tube) received three different treatments: (a) [^99mTc]Tc-iPD-L1 (7.4 kBq) (n = 3), (b) and [^99mTc]Tc-WL12 (7.4 kBq) (n = 3), and (c) ^99mTcO4Na (7.4 kBq) (n = 3). Cells were incubated with each treatment at 37 °C for one hour. After incubation, tubes were measured in a NaI(Tl) detector (NML Inc., Houston, TX, USA) to establish the initial or first activity (100%). The tubes were spun at 500 g for 10 min, rinsed once with PBS, and spun once more. The liquid was removed, and the activity in the button was determined, indicating the percentage of cellular uptake (surface uptake) regarding the initial or first activity. Acetic acid/0.5 M NaCl was added, the tubes were centrifuged, and the activity was measured. The liquid was removed, and activity in button activity represented the percentage of activity internalized by cells relative to uptake activity (internalization fraction of surface uptake). […]
# [3] = test system: HCC827 lung cancer tumors; experiment: Biodistribution in mice bearing HCC827 tumors; type: in vivo, mouse; conditions: mean over 1, 3 and 24 h
# Experimental: All animal procedures were performed following the Institutional Animal Care and Use Committee requirements under an approved protocol (No. 09-2018-2022) and the Ethical Regulations for the Handling of Laboratory Animals (NOM-062-ZOO-1999). Male Nu/Nu (CINVESTAV, I.PN., Mexico City, Mexico) mice, 6–8 weeks of age, were maintained in an aseptic barrier environment. Mice were inoculated by subcutaneous injection of 1 × 10^6 HCC827 cells/0.1 mL PBS into the upper back. Injection sites were monitored periodically for tumor progression. On day ten after tumor cell inoculation, animals were injected with 18.5 MBq (50 µL) of [^99mTc]Tc-iPD-L1 or 18.5 MBq (50 µL) of [^99mTc]Tc-WL12 by tail vein injection. The animals were sacrificed at 1, 3, and 24 h (n = 3). Kidneys, lungs, heart, liver, spleen, pancreas, small intestine, stomach, muscle, and blood and tumor samples were dissected. Radioactivity was determined in a sodium iodide detector. The results were stated as % injected dose/g.
# After 24 h, the activity in tumors was 3.21 ± 0.45 %ID/g ([^99mTc]Tc-WL12) and 5.65 ± 0.98 %ID/g ([^99mTc]Tc-iPD-L1). […] This behavior is related to the higher lipophilicity of [^99mTc]Tc-iPD-L1 compared to [^99mTc]Tc-WL12.
# T1 sequence (Q9NZQ7 19-290): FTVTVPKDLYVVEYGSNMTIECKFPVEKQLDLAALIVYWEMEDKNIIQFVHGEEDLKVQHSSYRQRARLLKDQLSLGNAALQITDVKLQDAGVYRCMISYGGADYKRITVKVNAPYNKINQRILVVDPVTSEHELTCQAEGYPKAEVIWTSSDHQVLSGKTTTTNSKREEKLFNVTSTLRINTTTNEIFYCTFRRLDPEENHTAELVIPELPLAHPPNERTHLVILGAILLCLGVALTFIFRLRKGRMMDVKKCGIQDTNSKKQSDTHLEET
compound,measurement,setting,value
"CCCC[C@H]1C(=O)N(C)[C@@H](CCCC)C(=O)N[C@@H](CCCNC(=O)c2ccc(NN)nc2)C(=O)N[C@H](C(=O)NCC(N)=O)CSCC(=O)N[C@@H](Cc2ccc(O)cc2)C(=O)N(C)[C@@H](C)C(=O)N[C@@H](CC(N)=O)C(=O)N2CCC[C@H]2C(=O)N[C@@H](Cc2c[nH]cn2)C(=O)N[C@@H](CC(C)C)C(=O)N2C[C@H](O)C[C@H]2C(=O)N[C@@H](Cc2c[nH]c3ccccc23)C(=O)N[C@@H](CO)C(=O)N[C@@H](Cc2cn(C)c3ccccc23)C(=O)N1C [[^99mTc]Tc-WL12, metal not drawn]",radioactivity detected at the distance associated with the PD-L1 protein,[1],14%
same,uptake and internalization compared to C6 cells (PD-L1 negative),[2],significantly higher
same,mean percentage of tumor uptake over time (two-way ANOVA),[3],6.617
